Assay: Dispersibility of the preservative into the finished product
Format: physicochemical
Conditions: preservative post-added (IPBC 0.2%, DGH 0.1%)
Experimental: For 90 kg batch, initial 20% of water is heated to 47.7° C., the agitation is set to 32.5 Hz, then color (1 min of agitation), lactic acid (1 min of agitation), etidronic acid (1 min of agitation) and PQ7 (3 min of agitation) is added. Afterward, the pre-heated esterquat at 60-65° C. is added for 10 seconds and mixture for 5 min. After esterquat addition, the 75% of the remaining water (15° C.) is added and mixed for 5 min more. The final composition is completed with the addition of the rest of the components keeping the agitation at 35 Hz; thickener (10 min of agitation), blend of slurry fragrance capsules (water/capsules; 10:1) (5 min of agitation) and oil perfume (10 min of agitation). For the reference sample, 5% of additional water is post-added to the mixture (5 min of agitation). In the case of the control sample, 0.02% of DPIII is post added with the remaining water to cover the % of hole (5 min of agitation). For the alternative test compositions with IPBC, IPBC is post-added at 0.2% as is. […]
The negative control, positive control, Test composition 1, and Test composition 2, described in Table 1 of Example 1 are first evaluated for their dispersibility into the product and their impact on the viscosity, pH and stability (predictive methods). […] No significant difference in viscosity, pH and stability are identified for all the evaluated samples.

SMILES	dispersibility by being directly post-added into the finished product
CCCCCCCCCCCCNC(=N)N.Cl [DGH, Dodecylguanidinee Hydrochloride]	acceptable dispersibility
CCCCNC(=O)OCC#CI [IPBC, 3-iodo-2-propynyl butylcarbamate]	acceptable dispersibility

— US20230340364A1, “Fabric Softening Compositions” (Colgate-Palmolive Company, priority 2020, published 2023)
